Reference: PubChem BioAssay (NCI)
“And” between values parts separate entries of the source, which are not always exact repeats. Equal values may be shown once.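 48-hour exposure; five concentrations; linearly interpolated endpoints. Abbreviation: GI50, concentration required for 50% inhibition of growth. Definition used: TGI = concentration required for complete inhibition of growth.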

Legend:
Experiment in all cases: NCI tumour cell line growth inhibition, 48 h
[1] = tested on: ACHN renal
[2] = tested on: SW-620 colon
[3] = tested on: OVCAR-3 ovarian
[4] = tested on: OVCAR-4 ovarian
[5] = tested on: TK-10 renal
[6] = tested on: CAKI-1 renal
[7] = tested on: OVCAR-8 ovarian
[8] = tested on: HS 578T breast
[9] = tested on: T-47D breast
[10] = tested on: NCI-H460 lung

Compound	GI50 [1]	TGI [1]	GI50 [2]	TGI [2] [µM]	GI50 [3]	TGI [3]	GI50 [4]	TGI [4]	GI50 [5]	TGI [5]	GI50 [6]	TGI [6] [µM]	GI50 [7]	TGI [7] [µM]	GI50 [8] [µM]	TGI [8] [µM]	GI50 [9]	TGI [9] [µM]	GI50 [10]	TGI [10]
O=c1nc2[nH]c3c(-c4n[nH]c(=O)[nH]c4=O)cccc3c2n[nH]1	> 100 µM	> 100 µM	> 100000 nM	> 100	> 100000 nM	> 100 µM	> 100 µM	> 100 µM	> 100 µM	> 100 µM	> 100000 nM	> 100	> 100000 nM	> 100	> 100	> 100	> 100 µM	> 100	> 100000 nM	> 100 µM
Cc1ccc(S(=O)(=O)N2CCC(C(=O)O)(c3ccccc3)CC2)cc1		> 100 µM		> 100		> 100 µM		> 100 µM		> 100 µM		> 100		> 100		> 100		> 100		> 100 µM
Nc1nc(=S)c2[nH]cnc2[nH]1	0.89 µM and 4.03 µM	41.8 µM and 104 µM	564 nM and 3600 nM and 1180 nM		446 nM and 1440 nM and 1100 nM	6.32 µM and 7.68 µM and 9.64 µM	0.573 µM and 4.99 µM	> 100 µM and 97.4 µM and 109 µM	0.375 µM and 0.542 µM and 1.26 µM	41.3 µM and 67.7 µM and 9.02 µM	264 nM and 345 nM and 888 nM		374 nM and 432 nM and 910 nM		4.13		0.43 µM and 0.964 µM and 1.25 µM		332 nM and 989 nM	7 µM and 16.8 µM and 19.8 µM
Cc1ccnc(Nc2ccc([N+](=O)[O-])c(NCCN3CCOCC3)n2)c1	0.00744 µM	40.8 µM	4.97 nM	> 100	2.66 nM	0.0078 µM	0.0151 µM		18.5 µM	62 µM	5.2 nM	> 100	33.4 nM and 20.1 nM	> 100	0.0277	22.7	26.1 µM	74.9	4.31 nM	> 100 µM
NC(N)=N/N=C/c1c(-c2ccncc2)nc2sc(Cl)cn12	9.28 µM	24.5 µM	7340 nM	18	5550 nM	11.6 µM	1.57 µM	6.16 µM	5.26 µM	10.9 µM	18100 nM	34.7	15200 nM	36.4	18.8	41.7	28.6 µM	56.6	27500 nM	> 59.2 µM
C#CC#CC#CC#CC#CC#CC#CC#CC[C@@H]1OC[C@@H](COC(=O)O[C@@H](C(=O)O[C@H]2C[C@@]3(O)[C@@H](OC(=O)c4ccccc4)[C@@H]4[C@]5(OC(C)=O)CO[C@@H]5C[C@H](O)[C@@]4(C)C(=O)[C@H](OC(C)=O)C(=C2C)C3(C)C)[C@@H](NC(=O)c2ccccc2)c2ccccc2)O1	2.02 µM	> 33.3 µM	188 nM	> 33.3	142 nM		> 8.99 µM	> 33.3 µM	2.25 µM	> 33.3 µM	477 nM	> 33.3	460 nM	> 33.3	0.239	> 8.14	0.335 µM	> 33.3	101 nM	> 33.3 µM
COC(=O)c1ccc2[nH]c(O)c(C(=Nc3ccc(N(C)C(=O)CN4CCN(C)CC4)cc3)c3ccccc3)c2c1	1.13 µM	4.12 µM	795 nM	4.27	1410 nM	3.23 µM	0.956 µM	2.78 µM	3.05 µM	17 µM	210 nM	1.25	1610 nM	7.1	0.266	4.57	11.9 µM	33.4	1870 nM	5.09 µM
OCCCCC#Cc1ccccc1C#Cc1ccc(C(F)(F)F)cc1	17.5 µM	31.2 µM	17000 nM	35.2	17800 nM	32.6 µM	11.2 µM	23.9 µM	11.9 µM	25.3 µM	18600 nM	33.8	17400 nM	33.2	26.3	65.9	15.9 µM	33.9	23300 nM	60.3 µM
Cn1ccnc1C(=O)/C=C/c1ccc(C(=O)Nc2c(F)c(F)c(F)c(F)c2F)cc1	1.65 µM	3.01 µM	1190 nM	2.86	1400 nM	2.74 µM	1.53 µM	4.52 µM	1.76 µM	3.69 µM	1530 nM	3.11	1720 nM	4.04	2.1	6.44	1.29 µM	3.4	1780 nM	5.11 µM
COc1ccc(/C(C)=C(\c2ccc(Cl)cc2)c2ccc(OCCN3CCCCCC3)cc2)cc1F	5.19 µM	> 16.7 µM	2140 nM	4.81	2980 nM	5.89 µM	2.63 µM	8.09 µM	4.28 µM	14 µM	3370 nM	7.7	5090 nM	> 16.7	2.69	6.51	3.47 µM	15.1	2560 nM	5.4 µM
C#Cc1cccc(NC(=O)C2CCCN(C(=O)CCl)C2)c1 (stereo not drawn)	16.1 µM	31.6 µM	29500 nM	> 82.5	> 82500 nM	> 82.5 µM	19.5 µM	52.8 µM	> 82.5 µM	> 82.5 µM	> 82500 nM	> 82.5	61800 nM	> 82.5	> 82.5	> 82.5	> 82.5 µM	> 82.5	> 82500 nM	> 82.5 µM
Oc1ccccc1C=Nc1nc(OCc2ccccc2)nc2[nH]ncc12	28 µM	> 100 µM	27400 nM	76.1	17800 nM	49.1 µM	23.5 µM	69.6 µM	10.6 µM	32.8 µM	14200 nM	50.5	44300 nM	> 100	19.2	56.9	14 µM	46.3	24400 nM	> 100 µM
CCN1CCN(c2nc(NNC(=O)c3ccccc3)nc(N3CCN(C(c4ccccc4)c4ccccc4)CC3)n2)CC1	2.53 µM	6.56 µM	2300 nM	5.88	3430 nM	13.2 µM	5.39 µM	26.1 µM	3.31 µM	11.4 µM	2210 nM	5.76	3580 nM	19.5	3.3	22.3	3.16 µM	31.2	2100 nM	4.63 µM
CNCc1ccc(-c2[nH]c3cc(F)cc4c3c2CCNC4=O)cc1	18.7 µM	> 58.2 µM	16100 nM	60.4	19900 nM	47.2 µM	13.5 µM	47.8 µM	29.2 µM	72.7 µM	16700 nM	60	17400 nM	77.5	19.5	67.9	16.8 µM	55	14900 nM	42.3 µM
Nc1ncnc2c1nc(Cl)n2C1OC(CO)C(O)C1O (stereo not drawn)		> 100 µM		> 100		> 100 µM		> 100 µM		> 32.7 µM		> 100		> 100		> 100		8.15		> 100 µM
COc1cc(/C=C2\C(=O)N(C)c3ccccc32)cc(OC)c1OC	14.7 µM	62.8 µM	13400 nM	> 100	21300 nM	76.9 µM	18.6 µM	> 100 µM	31.1 µM	> 100 µM	17100 nM	80.9	22700 nM	95.2	27.4	> 100	58 µM	> 100	10800 nM	64.1 µM
COc1c(O)c2c3c(c1OC)-c1ccccc1CC3N(S(=O)(=O)c1ccc(C)cc1)CC2 (stereo not drawn)	2.91 µM	> 50 µM	1600 nM	> 50	1180 nM	2.68 µM	3.7 µM	> 50 µM	7.96 µM	> 50 µM	2120 nM	> 50	1920 nM	> 50	1.2	4.03	1.56 µM	27.9	1580 nM	> 50 µM
